Experiment: Organ distribution of 99mTc-IDP in rabbits with 85Sr administered simultaneously (Table 1)
Assay type: in vivo, New Zealand adult albino rabbits
Settings: for % Dose/1% Body Weight, AVG BONE: mean of femur, tibia, spine, pelvis
Experimental: The organ distribution of the ^99m Tc imidodiphosphonate (IDP) was studied after I.V. injection of 50-200 μCi containing 0.1-0.2 mg of IDP per animal in New Zealand adult albino rabbits weighing 3.5-5 kg and compared with 10-20 μCi of ^85 Sr administered simultaneously as a biological standard. The methods of tissue assay used were those described in the Subramanian et al. references, supra. These animals were sacrificed at various time intervals from 15 min. to 24 hrs. after injection. […] A whole body image of the dog was obtained in the right lateral projection 4 hours after intravenous injection of 5 mCi of ^99m Tc-IDP using the Ohio Nuclear Model 100 area scan camera fitted with a 140 kev high sensitivity parallel hole collimator, with the data density setting of 200.
Table 1 contains biological distribution data of ^99m Tc-IDP in rabbits with ^85 Sr used simultaneously. The numbers shown in parenthesis after the time of study is the number of animals used per time interval. The values for each organ shown are the averages for each group of animals. The bone concentration shown as % dose / 1% body weight is the mean value of individual average of concentrations in four types of bone; the femur, tibia, spine and pelvis. An overall mean concentration of the four types of bone was calculated for each animal and then the average of these mean values were determined. Similarly the mean values for bone/organ ratios were calculated for each group.
In order to compensate for biologic variation, bone agents are best studied by comparing the quantitative uptake of the new compound with simultaneously administered ^85 Sr as a means of normalization. In comparing several ^99m Tc labeled agents between each other one should not only compare the whole organ uptake of individual compounds but also the ratios of their concentrations with ^85 Sr, especially so in comparing bone uptakes. Due to regional variation in bone uptake with the skeleton it is difficult to correctly estimate whole body bone uptake quantitatively. Nevertheless, the data for single whole bones (femur and tibia) is useful. […] This concentration change over serial time intervals may be due to the metabolic breakdown of the compound at the bone mineral surface with the ^99m Tc complex being more labile, while we known the biological half life of ^85 Sr is prolonged. Even at the later time intervals than 2 hours, ^99m Tc-IDP concentration in bone is at least 20-25% higher than the other Tc complexes (Table 2). The soft tissue concentrations of all these complexes are lower, especially that of the muscle, than ^85 Sr. The liver concentration is somewhat higher than ^85 Sr for some ^99m Tc complexes. This should not be a problem because the total liver concentration is relatively low.

[1] = 2 hours after I.V. injection, mean of 9 rabbits
[2] = 4 hours after I.V. injection, mean of 9 rabbits
[3] = 24 hours after I.V. injection, mean of 7 rabbits

[85Sr] [85Sr]
% Dose/1% Body Weight, KIDNEY [1]: 1.14 % Dose/1% Body Weight
% Dose/1% Body Weight, LG INT [1]: 0.762 % Dose/1% Body Weight
% Dose/1% Body Weight, LIVER [1]: 0.357 % Dose/1% Body Weight
% Dose/1% Body Weight, MARROW [1]: 0.227 % Dose/1% Body Weight
% Dose/1% Body Weight, MUSCLE [1]: 0.186 % Dose/1% Body Weight
% Dose/1% Body Weight, PELVIS [1]: 7.35 % Dose/1% Body Weight
% Dose/1% Body Weight, SM INT [1]: 0.669 % Dose/1% Body Weight
% Dose/1% Body Weight, SPINE [1]: 8.05 % Dose/1% Body Weight
% Dose/1% Body Weight, TIBIA [1]: 6.60 % Dose/1% Body Weight
RATIOS BONE/BLOOD [1]: 10.5
RATIOS BONE/MARROW [1]: 36
RATIOS BONE/MUSCLE [1]: 44
% Dose/1% Body Weight, AVG BONE (2 hours after I.V. injection, 9 rabbits): 7.21 % Dose/1% Body Weight
% Dose in Whole Organ, BLOOD [2]: 2.72 % Dose
% Dose in Whole Organ, KIDNEY [2]: 0.267 % Dose
% Dose in Whole Organ, LIVER [2]: 0.576 % Dose
% Dose in Whole Organ, MARROW [2]: 0.300 % Dose
% Dose in Whole Organ, MUSCLE [2]: 4.80 % Dose
% Dose in Whole Organ, URINE [2]: 26.2 % Dose
% Dose in Whole Organ, WHOLE FEMUR [2]: 1.84 % Dose
% Dose in Whole Organ, WHOLE TIBIA [2]: 1.57 % Dose
% Dose/1% Body Weight, BLOOD [2]: 0.388 % Dose/1% Body Weight
% Dose/1% Body Weight, FEMUR [2]: 7.87 % Dose/1% Body Weight
% Dose/1% Body Weight, KIDNEY [2]: 0.488 % Dose/1% Body Weight
% Dose/1% Body Weight, LG INT [2]: 0.421 % Dose/1% Body Weight
% Dose/1% Body Weight, LIVER [2]: 0.168 % Dose/1% Body Weight
% Dose/1% Body Weight, MARROW [2]: 0.137 % Dose/1% Body Weight
% Dose/1% Body Weight, MUSCLE [2]: 0.125 % Dose/1% Body Weight
% Dose/1% Body Weight, PELVIS [2]: 9.83 % Dose/1% Body Weight
% Dose/1% Body Weight, SM INT [2]: 0.300 % Dose/1% Body Weight
% Dose/1% Body Weight, SPINE [2]: 9.57 % Dose/1% Body Weight
% Dose/1% Body Weight, TIBIA [2]: 7.64 % Dose/1% Body Weight
RATIOS BONE/BLOOD [2]: 23.6
RATIOS BONE/MARROW [2]: 66.9
RATIOS BONE/MUSCLE [2]: 73.3
% Dose/1% Body Weight, AVG BONE (4 hours after I.V. injection, 9 rabbits): 9.16 % Dose/1% Body Weight
% Dose in Whole Organ, BLOOD [3]: 0.250 % Dose
% Dose in Whole Organ, KIDNEY [3]: 0.022 % Dose
% Dose in Whole Organ, LIVER [3]: 0.004 % Dose
% Dose in Whole Organ, MARROW [3]: 0.070 % Dose
% Dose in Whole Organ, MUSCLE [3]: 0.628 % Dose
% Dose in Whole Organ, WHOLE FEMUR [3]: 1.55 % Dose
% Dose in Whole Organ, WHOLE TIBIA [3]: 1.38 % Dose
% Dose/1% Body Weight, BLOOD [3]: 0.331 % Dose/1% Body Weight
% Dose/1% Body Weight, FEMUR [3]: 6.39 % Dose/1% Body Weight
% Dose/1% Body Weight, KIDNEY [3]: 0.067 % Dose/1% Body Weight
% Dose/1% Body Weight, LG INT [3]: 0.088 % Dose/1% Body Weight
% Dose/1% Body Weight, LIVER [3]: 0.016 % Dose/1% Body Weight
% Dose/1% Body Weight, MARROW [3]: 0.032 % Dose/1% Body Weight
% Dose/1% Body Weight, MUSCLE [3]: 0.015 % Dose/1% Body Weight
% Dose/1% Body Weight, PELVIS [3]: 8.13 % Dose/1% Body Weight
% Dose/1% Body Weight, SM INT [3]: 0.042 % Dose/1% Body Weight
% Dose/1% Body Weight, SPINE [3]: 6.96 % Dose/1% Body Weight
% Dose/1% Body Weight, TIBIA [3]: 6.58 % Dose/1% Body Weight
RATIOS BONE/BLOOD [3]: 20.9
RATIOS BONE/MARROW [3]: 217
RATIOS BONE/MUSCLE [3]: 462
% Dose/1% Body Weight, AVG BONE (24 hours after I.V. injection, 7 rabbits): 6.93 % Dose/1% Body Weight
